The text below walks through data of US20260226073A1 (AURIGENE ONCOLOGY LIMITED, priority 2023, published 2026).

Test [1] deals with NFAT signaling pathway in Jurkat NFAT reporter cells. In words: Jurkat NFAT reporter assay. Format: cell-based. To be noted: Homo sapiens, 30 min with compound, then soluble anti-human CD3/CD28 antibody for 6 hours, luciferase readout, read-out: EC50 (Group). An outline of the steps: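 Jurkat cells bearing an NFAT-RE-driven luciferase reporter (1×10^5 per well) preincubated with Cbl-b inhibitor for 30 min, then stimulated 6 h with soluble anti-CD3/CD28. Luminescence read with Bio-Glo; values are fold change over anti-CD3/CD28-stimulated cells without inhibitor.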

Test [2] addresses T1, human recombinant CBL-b (human Biotin CBL-b recombinant protein a.a. 39-426) (Homo sapiens, UniProt Q13191).
T1 construct: human Biotin CBL-b recombinant protein a.a; 39-426; Biotin (biotinylated); made in house
The test can be described thus: Biochemical assay for CBL-b inhibition (ligand displacement TR-FRET). Format: binding. The conditions noted are these: 50 nM CBL-b, 0.3 μM Bodipy FL-Probe, read-out: IC50 (CBL-b inhibition, group). The method in brief: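 Biotinylated CBL-b (a.a. 39-426, 50 nM final) pre-incubated with compound 60 min at RT in HEPES/NaCl/Triton/BSA/TCEP buffer, then Bodipy FL probe (0.3 μM final) 60 min, then terbium-streptavidin 60 min. TR-FRET read at 665/615 nm; IC50 and % max inhibition from sigmoidal fits.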
On the technique in general: In TR-FRET formats the signal depends on donor and acceptor labels being close together.

T1 sequence (Q13191 39-426): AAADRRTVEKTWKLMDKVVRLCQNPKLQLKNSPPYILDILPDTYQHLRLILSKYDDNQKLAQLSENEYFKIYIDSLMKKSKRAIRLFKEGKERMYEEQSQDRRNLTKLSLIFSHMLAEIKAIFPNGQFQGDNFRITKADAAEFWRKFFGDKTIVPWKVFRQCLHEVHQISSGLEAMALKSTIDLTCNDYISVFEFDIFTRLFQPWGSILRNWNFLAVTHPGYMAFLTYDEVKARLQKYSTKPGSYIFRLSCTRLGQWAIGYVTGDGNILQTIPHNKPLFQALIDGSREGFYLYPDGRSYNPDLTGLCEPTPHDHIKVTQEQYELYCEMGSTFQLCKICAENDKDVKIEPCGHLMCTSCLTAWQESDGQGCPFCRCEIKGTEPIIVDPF

One may read the EC50 as the concentration giving half of the maximal effect. The IC50 is the concentration at which inhibition is half-maximal. With `C[C@@H]1C[C@H](C)CN(Cc2cc(N3Cc4ccc(-c5ccccc5-c5nncn5C)cc4C3=O)nc(C(F)(F)F)c2)C1` [Compound 117, 2-(4-(((3S,5R)-3,5-Dimethylpiperidin-1-yl)methyl)-6-(trifluoromethyl)pyridin-2-yl)-6-(2-(4-methyl-4H-1,2,4-triazol-3-yl)phenyl)isoindolin-1-one], the EC50 in test [1] is 1000 to 10000 nM. The IC50 in test [2] lay within 80 to 300 nM.

On to `Cn1cnnc1CC1(c2ccc3c(c2)C(=O)N(c2cc(CNC4CC(F)(F)C4)cc(C(F)(F)F)n2)C3)COC1` [Compound 74, 2-(4-(((3,3-Difluorocyclobutyl)amino)methyl)-6-(trifluoromethyl)pyridin-2-yl)-6-(3-((4-methyl-4H-1,2,4-triazol-3-yl)methyl)oxetan-3-yl)isoindolin-1-one], for which the EC50 in test [1] fell in the range of 1000 to 10000 nM. In addition, the IC50 in test [2] was 80 to 300 nM.

As to `Cc1cc(CNCCCC(F)(F)F)cc(N2Cc3ccc(-c4ccc(F)cc4-c4nncn4C)cc3C2=O)n1` [Compound 328, 6-(4-Fluoro-2-(4-methyl-4H-1,2,4-triazol-3-yl)phenyl)-2-(6-methyl-4-(((4,4,4-trifluorobutyl)amino)methyl)pyridin-2-yl)isoindolin-1-one], in test [1], the EC50 fell in the range of 300 to 1000 nM. Moreover, the IC50 in test [2] was < 80 nM.

Consider `C[C@H](NC1CCCC1)c1cc(Cl)nc(N2Cc3ccc(-c4ccc(Cl)cc4-c4nncn4C)cc3C2=O)c1` (single isomer, unassigned) [Compound 105, 6-(4-Chloro-2-(4-methyl-4H-1,2,4-triazol-3-yl)phenyl)-2-(6-chloro-4-(1-(cyclo-pentylamino)ethyl)pyridin-2-yl)isoindolin-1-one], for which the EC50 in test [1] is < 300 nM. For the same molecule, in test [2], the IC50 is < 80 nM.

`Cc1cc(CNCCC(F)(F)F)cc(N2Cc3ccc(C4(Cc5nncn5C)COC4)cc3C2=O)c1` [Compound 19, 6-(3-((4-Methyl-4H-1,2,4-triazol-3-yl)methyl)oxetan-3-yl)-2-(3-methyl-5-(((3,3,3-trifluoropropyl)amino)methyl)phenyl)isoindolin-1-one]: the EC50 in test [1] lay within 300 to 1000 nM. Moreover, the IC50 in test [2] is < 80 nM.

For the molecule `C[C@@H]1C[C@H](C)CN(Cc2cc(N3Cc4ccc([C@H](C)Cc5nncn5C)cc4C3=O)nc(C(F)(F)F)c2)C1` (single isomer, unassigned) [Compound 87], the EC50 in test [1] lay in the range of 300 to 1000 nM. Besides, in test [2], the IC50 fell in the range of 80 to 300 nM.

For the molecule `CC(NCc1cc(Cl)nc(N2Cc3ccc(C4(Cc5nncn5C)COC4)cc3C2=O)c1)C1CC1` (stereo not shown) [Compound 131, 2-(6-Chloro-4-(((1-cyclopropylethyl)amino)methyl)pyridin-2-yl)-6-(3-((4-methyl-4H-1,2,4-triazol-3-yl)methyl)oxetan-3-yl)isoindolin-1-one], in test [1], the EC50 was < 300 nM. Moreover, in test [2], the IC50 was < 80 nM.

Turning to `Cc1cc(CNCCC(C)C)cc(N2Cc3ccc(-c4ccc(F)cc4-c4nncn4C)cc3C2=O)n1` [Compound 300, 6-(4-Fluoro-2-(4-methyl-4H-1,2,4-triazol-3-yl)phenyl)-2-(4-((isopentylamino)-methyl)-6-methylpyridin-2-yl)isoindolin-1-one], the EC50 in test [1] fell in the range of 300 to 1000 nM. In addition, the 50% inhibitory concentration (IC50) in test [2] was < 80 nM.

Consider `CC1CCCCN1Cc1cc(N2Cc3ccc(C4(Cc5nncn5C)COC4)cc3C2=O)nc(C(F)(F)F)c1` (stereo not shown) [Compound 45, 6-(3-((4-Methyl-4H-1,2,4-triazol-3-yl)methyl)oxetan-3-yl)-2-(4-((2-methyl-piperidin-1-yl)methyl)-6-(trifluoromethyl)pyridin-2-yl)isoindolin-1-one], for which, in test [1], the EC50 was 1000 to 10000 nM. In test [2], the IC50 lay within 300 to 5000 nM.

Consider `C[C@H]1CCN(Cc2cc(Cl)nc(N3Cc4ccc(C5(Cc6nncn6C)COC5)cc4C3=O)c2)C1` [Compound 67, (S)-2-(6-Chloro-4-((3-methylpyrrolidin-1-yl)methyl)pyridin-2-yl)-6-(3-((4-methyl-4H-1,2,4-triazol-3-yl)methyl)oxetan-3-yl)isoindolin-1-one], for which the EC50 in test [1] lay within 300 to 1000 nM. Further, the IC50 in test [2] was in the range of 80 to 300 nM.

Turning to `Cn1cnnc1CC1(c2ccc3c(c2)C(=O)N(c2cc(CNCC(C)(C)O)cc(Cl)n2)C3)COC1` [Compound 187], the EC50 in test [1] lay within 1000 to 10000 nM. In test [2], the IC50 was < 80 nM.

Regarding `Cn1cnnc1CC1(c2ccc3c(c2)C(=O)N(c2cc(CN4CC[C@H](F)C4)cc(C(F)(F)F)n2)C3)COC1` [Compound 61, (S)-2-(4-((3-Fluoropyrrolidin-1-yl)methyl)-6-(trifluoromethyl)pyridin-2-yl)-6-(3-((4-methyl-4H-1,2,4-triazol-3-yl)methyl)oxetan-3-yl)isoindolin-1-one], the EC50 in test [1] fell in the range of 1000 to 10000 nM. In test [2], the IC50 was in the range of 300 to 5000 nM.

Consider `Cn1cnnc1CC1(c2ccc3c(c2)C(=O)N(c2cc(CNCCC(F)(F)F)cc(Cl)n2)C3)CCC1` [Compound 151, 2-(6-Chloro-4-(((3,3,3-trifluoropropyl)amino)methyl)pyridin-2-yl)-6-(1-((4-methyl-4H-1,2,4-triazol-3-yl)methyl)cyclobutyl)isoindolin-1-one], for which, in test [1], the EC50 was < 300 nM. In test [2], the IC50 is < 80 nM.

Take `Cc1cc(CNCC2CC2(F)F)cc(N2Cc3ccc(C4(Cc5nncn5C)COC4)cc3C2=O)c1` (stereo not shown) [Compound 20, 2-(3-((((2,2-Difluorocyclopropyl)methyl)amino)methyl)-5-methylphenyl)-6-(3-((4-methyl-4H-1,2,4-triazol-3-yl)methyl)oxetan-3-yl)isoindolin-1-one]: the EC50 in test [1] lay within 300 to 1000 nM. For the same molecule, the IC50 in test [2] was 80 to 300 nM.

Consider `C[C@@H](NCc1cc(Cl)nc(N2Cc3ccc(-c4ccc(Cl)cc4-c4nncn4C)cc3C2=O)c1)C1CC1` (single isomer, unassigned) [Compound 108, 6-(4-Chloro-2-(4-methyl-4H-1,2,4-triazol-3-yl)phenyl)-2-(6-chloro-4-(((1-cyclo-propylethyl)amino)methyl)pyridin-2-yl)isoindolin-1-one], for which the EC50 in test [1] was < 300 nM. In addition, in test [2], the IC50 was < 80 nM.

On to `Cn1cnnc1-c1cc(Cl)ccc1-c1ccc2c(c1)C(=O)N(c1cc(CNCC3CC3)cc(Cl)n1)C2` [Compound 102, 6-(4-Chloro-2-(4-methyl-4H-1,2,4-triazol-3-yl)phenyl)-2-(6-chloro-4-(((cyclopropylmethyl)amino)methyl)pyridin-2-yl)isoindolin-1-one], for which the EC50 in test [1] was < 300 nM. Moreover, in test [2], the IC50 was < 80 nM.

For the molecule `C[C@H](Cc1nncn1C)c1ccc2c(c1)C(=O)N(c1cc(CNCCC(F)(F)F)cc(Cl)n1)C2` (single isomer, unassigned) [Compound 164], the EC50 in test [1] was 1000 to 10000 nM. Also, the half-maximal inhibitory concentration (IC50) in test [2] was < 80 nM.

For the molecule `C[C@H](NC1CCCC1)c1cc(Cl)nc(N2Cc3ccc(C4(Cc5nncn5C)COC4)cc3C2=O)c1` (single isomer, unassigned) [Compound 231], the EC50 in test [1] is < 300 nM. Further, in test [2], the IC50 was < 80 nM.

`Cc1cc(CNCC2(O)CCCC2)cc(N2Cc3ccc(-c4ccc(F)cc4-c4nncn4C)cc3C2=O)n1` [Compound 319, 6-(4-Fluoro-2-(4-methyl-4H-1,2,4-triazol-3-yl)phenyl)-2-(4-((((1-hydroxy-cyclopentyl)methyl)amino)methyl)-6-methylpyridin-2-yl)isoindolin-1-one]: in test [1], the EC50 is < 300 nM. In addition, in test [2], the IC50 was < 80 nM.

For the molecule `Cc1cc(CNCC2(CO)CCC2)cc(N2Cc3ccc(-c4ccc(F)cc4-c4nncn4C)cc3C2=O)n1` [Compound 308], in test [1], the EC50 lay within 1000 to 10000 nM. Moreover, in test [2], the IC50 is < 80 nM.

Consider `Cn1cnnc1CC1(c2ccc3c(c2)C(=O)N(c2cc(CNC[C@H]4CCCO4)cc(Cl)n2)C3)COC1` (single isomer, unassigned) [Compound 195], for which the EC50 in test [1] was in the range of 1000 to 10000 nM. In addition, the half-inhibitory concentration (IC50) in test [2] was < 80 nM.

On to `Cc1cc(CN[C@@H](CO)C(C)C)cc(N2Cc3ccc(-c4ccc(F)cc4-c4nncn4C)cc3C2=O)n1` [Compound 315, (R)-6-(4-Fluoro-2-(4-methyl-4H-1,2,4-triazol-3-yl)phenyl)-2-(4-(((1-hydroxy-3-methylbutan-2-yl)amino)methyl)-6-methylpyridin-2-yl)isoindolin-1-one], for which the EC50 in test [1] was < 300 nM. For the same molecule, the IC50 in test [2] was < 80 nM.

As to `Cc1cc(C(C)NCC2CCC2)cc(N2Cc3ccc(-c4ccc(Cl)cc4-c4nncn4C)cc3C2=O)n1` (stereo not shown) [Compound 278, 6-(4-Chloro-2-(4-methyl-4H-1,2,4-triazol-3-yl)phenyl)-2-(4-(1-((cyclobutyl-methyl)amino)ethyl)-6-methylpyridin-2-yl)isoindolin-1-one], the EC50 in test [1] was < 300 nM. Besides, the IC50 in test [2] is < 80 nM.

Consider `C[C@H](Cc1nncn1C)c1ccc2c(c1)C(=O)N(c1cc(CNCC3CC3)cc(Cl)n1)C2` (single isomer, unassigned) [Compound 161], for which the EC50 in test [1] was in the range of 300 to 1000 nM. In addition, the IC50 in test [2] is < 80 nM.

With `C[C@H]1C[C@H](C)CN(Cc2cc(N3Cc4ccc(C5(Cc6nncn6C)COC5)cc4C3=O)nc(C(F)(F)F)c2)C1` [Compound 42, 2-(4-(((3S,5S)-3,5-Dimethylpiperidin-1-yl)methyl)-6-(trifluoromethyl)pyridin-2-yl)-6-(3-((4-methyl-4H-1,2,4-triazol-3-yl)methyl)oxetan-3-yl)isoindolin-1-one], the EC50 in test [1] fell in the range of 300 to 1000 nM. In addition, the IC50 in test [2] is < 80 nM.

With `Cc1cc(CNCCC2CC2)cc(N2Cc3ccc(-c4ccc(F)cc4-c4nncn4C)cc3C2=O)n1` [Compound 307, 2-(4-(((2-Cyclopropylethyl)amino)methyl)-6-methylpyridin-2-yl)-6-(4-fluoro-2-(4-methyl-4H-1,2,4-triazol-3-yl)phenyl)isoindolin-1-one], the EC50 in test [1] was < 300 nM. Moreover, the IC50 in test [2] was < 80 nM.
